For assay [1], the target named is T1, 11β-HSD1 (Homo sapiens, UniProt P28845).
T1 construct: endogenous in cells; host or cells: primary human aortic smooth muscle cells (AoSMC), induced with hTNFα
The assay is described as follows: Human aortic smooth muscle cell assay (cortisone to cortisol conversion). It is filed as cell-based. Particulars: primary human aortic smooth muscle cells (AoSMC), hTNFα-induced 11β-HSD1, cortisol measured by immunoassay. Here is the method: Human Aortic Smooth Muscle Cell Assay
Primary human aortic smooth muscle cells (AoSMC) are cultured in 5% FBS growth medium to a passage number of 6, then pelleted by centrifugation and resuspended at a density of 9×10^4 cells/mL in 0.5% FBS assay medium containing 12 ng/mL hTNFα to induce expression of 11β-HSD1. Cells are seeded into 96-well tissue culture assay plates at 100 μL/well (9×10^3 cells/well) and incubated for 48 hours at 37° C., 5% CO2. Following induction, cells are incubated for 4 hours at 37° C., 5% CO2 in assay medium containing test compounds then treated with 10 μL/well of 10 μM cortisone solubilized in assay medium, and incubated for 16 hours at 37° C., 5% CO2. Medium from each well is transferred to a plate for subsequent analysis of cortisol using a competitive fluorescence resonance time resolved immunoassay. In solution, an allophycocyanin (APC)-cortisol conjugate and free cortisol analyte compete for binding to a mouse anti-cortisol antibody/Europium (Eu)-anti mouse IgG complex. Higher levels of free cortisol result in diminishing energy transfer from the Europium-IgG to the APC-cortisol complex resulting in less APC fluorescence. Fluorescent intensities for Europium and APC are measured using a LJL Analyst AD. Europium and APC excitation is measured using 360 nm excitation and 615 nm and 650 nm emission filters respectively. Time resolved parameters for Europuium were 1000 μs integration time with a 200 μs delay. APC parameters are set at 150 μs integration time with a 50 μs delay. Fluorescent intensities measured for APC are modified by dividing by the Eu fluorescence (APC/Eu). This ratio is then used to determine the unknown cortisol concentration by interpolation using a cortisol standard curve fitted with a 4-parameter logistic equation. These concentrations are then used to determine compound activity by plotting concentration versus % inhibition, fitting with a 4-parameter curve and reporting the IC50.

The target of assay [2] is T2, 11β-HSD1 (Mus musculus, UniProt P50172).
T2 construct: tissue Harlan Sprague Dawley; host or cells: whole animal, male C57BL/6 mice; serum cortisol read-out
Description: Acute in vivo cortisone conversion assay. Particulars: male C57BL/6 mice, oral dose 10 mg/kg, cortisone challenge 16 hours post dose, serum cortisol by LC-MS/MS. Here is the method: Acute In Vivo Cortisone Conversion Assay
In general, compounds are dosed orally into mice, the mice are challenged with a subcutaneous injection of cortisone at a set timepoint after compound injection, and the blood of each animal is collected some time later. Separated serum is then isolated and analyzed for levels of cortisone and cortisol by LC-MS/MS, followed by calculation of mean cortisol and percent inhibition of each dosing group. Specifically, male C57BL/6 mice are obtained from Harlan Sprague Dawley at average weight of 25 grams. Exact weights are taken upon arrival and the mice randomized into groups of similar weights. Compounds are prepared in 1% w-w HEC, 0.25% w-w polysorbate 80, 0.05% w-w Dow Corning antifoam #1510-US at various doses based on assumed average weight of 25 grams. Compounds are dosed orally, 200 μl per animal, followed by a subcutaneous dose, 200 μl per animal, of 30 mg/kg cortisone at 1 to 24 hours post compound dose. At 10 minutes post cortisone challenge, each animal is euthanized for 1 minute in a CO2 chamber, followed by blood collection via cardiac puncture into serum separator tubes. Once fully clotted, tubes are spun at 2500×g, 4° C. for 15 minutes, the serum transferred to wells of 96-well plates (Corning Inc, Costar #4410, cluster tubes, 1.2 ml, polypropylene), and the plates are frozen at −20° C. until analysis by LC-MS/MS. […]

These results are taken from patent US7829582B2, “Piperidinyl substituted pyrrolidinones as inhibitors of 11-beta-hydroxysteroid dehydrogenase 1” (Eli Lilly and Company, priority 2006, dated 2010).

The IC50 is the concentration needed to halve the response being measured.

T1 sequence (P28845 whole entry): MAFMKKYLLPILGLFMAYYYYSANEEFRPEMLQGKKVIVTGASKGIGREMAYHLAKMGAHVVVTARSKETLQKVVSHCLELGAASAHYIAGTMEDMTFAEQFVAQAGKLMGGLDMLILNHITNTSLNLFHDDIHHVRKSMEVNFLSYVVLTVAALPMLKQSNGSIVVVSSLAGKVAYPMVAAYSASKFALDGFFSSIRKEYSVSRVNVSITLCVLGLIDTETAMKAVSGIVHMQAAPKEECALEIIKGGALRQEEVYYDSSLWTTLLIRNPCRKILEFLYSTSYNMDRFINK
T2 sequence (P50172 whole entry): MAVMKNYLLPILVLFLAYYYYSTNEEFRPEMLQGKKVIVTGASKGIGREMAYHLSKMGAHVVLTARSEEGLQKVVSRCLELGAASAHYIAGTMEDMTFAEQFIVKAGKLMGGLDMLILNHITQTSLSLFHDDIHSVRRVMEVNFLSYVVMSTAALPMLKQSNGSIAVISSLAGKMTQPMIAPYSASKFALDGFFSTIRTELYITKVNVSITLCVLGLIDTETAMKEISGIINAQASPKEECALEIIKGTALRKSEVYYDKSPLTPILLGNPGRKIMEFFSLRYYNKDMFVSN

As for `COC(=O)N1CCC(N2CC[C@@H](Cc3c(Cl)cc(-c4ccc(F)cc4)cc3Cl)C2=O)CC1` [Example 3, 4-[(R)-3-(3,5-Dichloro-4′-fluoro-biphenyl-4-ylmethyl)-2-oxo-pyrrolidin-1-yl]-piperidine-1-carboxylic acid methyl ester], the IC50 on 11β-HSD1 [1] worked out at 0.0845 µM.

Compound `CS(=O)(=O)N1CCC(N2CC[C@@H](Cc3c(Cl)cc(-c4ccc(F)cc4)cc3Cl)C2=O)CC1` [Example 1, (R)-3-(3,5-Dichloro-4′-fluoro-biphenyl-4-ylmethyl)-1-(1-methanesulfonyl-piperidin-4-yl)-pyrrolidin-2-one] returned an IC50 on 11β-HSD1 [1] of 0.085 µM.

On 11β-HSD1 [1], `O=C(Nc1ccccc1)N1CCC(N2CC[C@@H](Cc3c(Cl)cc(-c4ccc(F)cc4)cc3Cl)C2=O)CC1` [Example 8, 4-[(R)-3-(3,5-Dichloro-4′-fluoro-biphenyl-4-ylmethyl)-2-oxo-pyrrolidin-1-yl]-piperidine-1-carboxylic acid phenylamide] showed an IC50 of 0.159 µM.

On to `COC(=O)N1CCC(N2CC[C@@H](Cc3c(Cl)cc(-c4ccc(C(=O)N5CCC(C(F)(F)F)CC5)cc4)cc3Cl)C2=O)CC1` [Example 4, 4-{(R)-3-[3,5-Dichloro-4′-(4-trifluoromethyl-piperidine-1-carbonyl)-biphenyl-4-ylmethyl]-2-oxo-pyrrolidin-1-yl}-piperidine-1-carboxylic acid methyl ester], for which the “% Inhibition after 16 hours (dose of 10 (mg/kg))” value on 11β-HSD1 [2] is 92%. Also, on 11β-HSD1 [1], the midpoint of inhibition, the IC50, lay at 0.231 µM.

Take `CNC(=O)N1CCC(N2CC[C@@H](Cc3c(Cl)cc(-c4ccc(F)cc4)cc3Cl)C2=O)CC1` [Example 6, 4-[(R)-3-(3,5-Dichloro-4′-fluoro-biphenyl-4-ylmethyl)-2-oxo-pyrrolidin-1-yl]-piperidine-1-carboxylic acid methylamide]: the “% Inhibition after 16 hours (dose of 10 (mg/kg))” value on 11β-HSD1 [2] was 65%. The same compound showed an IC50 against 11β-HSD1 [1] of 0.073 µM.
